Experiment [1] concerns tumor necrosis factor-alpha. Description: ELISA of tumor necrosis factor-alpha in LPS-treated BV-2 cells. It is filed as cell-based. The conditions noted are these: LPS 1 μg/ml for 2 hours, then 50 nM KHG25967 for 6 hours; compared to LPS only as 100%. The protocol: (§1) Lipopolysaccharide (LPS)-treated cells (6-well of 5×10^5 cells/3 Ml, Fluka, Sigma-Aldrich, St. Louis, Mo., USA) were collected, and washed with phosphate-buffered saline (PBS). The cells were centrifuged, and then dissolved in pro-prep lysis buffer at 4° C. Interleukin-1 beta and tumor necrosis factor-alpha in the cell lysis solution wherein the cells were dissolved were measured by enzyme-linked immunosorbent analysis plate (R&D systems inc, Minneapolis, Minn., USA). The absorbance at 450 nm was measured using microplate reader. In addition, cytokine was measured using a cytokine measuring system (R&D systems inc, Minneapolis, Minn., USA).
(§2) BV-2 cells were pre-treated with 1 μg/ml of LPS (Fluka, Sigma-Aldrich, St. Louis, Mo., USA) for 2 hours, and then, further treated with 50 nM KHG25967 for 6 hours. The changed amounts of cytokines of tumor necrosis factor-alpha and interleukin-1beta were measured from lysate solution where the cells were dissolved in cell lysate solution (Intron Biotechnology, Seoul, Korea).

Another experiment relates to BV-2 cells. Description: Microscope analysis of cell shape, beta-amyloid treated BV-2 cells. It counts as cell-based. The following applies: 50 nM KHG25967 for 24 hours after 50 μM beta-amyloid for 2 hours. The protocol:
BV-2 microglia cells (allotted from Pharmacology Division of Ajou University) were cultivated in DMEM (Dulbecco's Modified Eagle's Medium) supplemented with 5% fetal bovine serum (Invitrogen, Carlsbad, Calif., USA), sou/Ml penicillin (Invitrogen, Carlsbad, Calif., USA), and 50 μg/Ml streptomycin (Invitrogen, Carlsbad, Calif., USA) under the atmosphere condition with 5% CO2 and 95% air at 37° C. The medium was replaced once a day, the cells were plate-cultured in a density according to the scale of each experiment.
BV-2 cells were pre-treated with 50 μM of beta-amyloid, and 50 nM of KHG25967 compound was added to the beta-amyloid treated cells for 24 hours. For microscope analysis, BV-2 cells were used in 6-well plate at the density of 5×10^5 cells/well, for MTT analysis, BV-2 cells were used in 96-well plate at the density of 5×10^4 cells/well.
The obtained prevention effects of KHG25967 compound on toxicity induced by beta-amyloid in BV-2 cells were FIGS. 1A and 1b.

The test system of experiment [2] is interleukin-1beta. Description: ELISA of interleukin-1beta in LPS-treated BV-2 cells. The conditions noted are these: LPS 1 μg/ml for 2 hours, then 50 nM KHG25967 for 6 hours; compared to LPS only as 100%. It counts as cell-based. As for the experimental part:
as §1, §2

Another experiment has as its system phospho-ERK2. Description: Immunoblotting of phospho-ERK2 in beta-amyloid stimulated BV-2 cell culture. It is filed as cell-based. The following applies: beta-amyloid together with KHG25967 (50 nM) compared to beta-amyloid only. As for the experimental part:
(§3) The beta-amyloid treated cells (6-well of 5×10^5 cells/3 Ml, allotted from Pharmacology Division of Ajou University) were collected, and washed with phosphate-buffered saline (PBS). After centrifugation, the cells were dissolved in 0.1 ml of RIPA buffer (containing 150 mM NaCl, 1% NP-40, 0.5% sodium deoxycholate, 0.1% SDS, 50 mM Tris-HCl, pH 7.4, 50 mM glyycerophosphate, 20 mM NaF, 20 mM EGTA, 1 mM DTT, 1 mM Na3VO4, and protease inhibitor) at 4° C. for 15 minutes by strong shaking. The cells were cultivated in ice for 10 minutes, the lysate was centrifuged at 14,000 rpm for 5 minutes. 20 μg of a protein obtained from the cell lysate was heated, and then, electrophoresed on 12% polyacrylamide gel under reduction condition. The cells were incubated in blocking buffer (20 mM Tris, pH 7.4-buffer saline containing 0.1% tween 20 containing 5% lipid-free dried milk) for 1 hour, to suppress non-specific binding. […]
(§4) To examine the effect of compound KHG25967 on phosphorylation of ERK (extracellular signal-regulated kinase) and expression of caspase 3 by beta-amyloid, a possible protein expression of ERK1/2 (extracellular signal-regulated kinase 1 & 2) and caspase 3 in BV-2cell culture stimulated with beta-amyloid were measured. […]

The next experiment relates to caspase 3. Description: Immunoblotting of cleaved caspase 3 in beta-amyloid stimulated BV-2 cell culture. It is filed as cell-based. The following applies: beta-amyloid together with KHG25967 (50 nM) compared to beta-amyloid only. As for the experimental part: as §3, with “condition.” for “condition. The cells were incubated in blocking buffer (20 mM Tris, pH 7.4-buffer saline containing 0.1% tween 20 containing 5% lipid-free dried milk) for 1 hour, to suppress non-specific binding.”
To examine the effect of compound KHG25967 on phosphorylation of ERK (extracellular signal-regulated kinase) and expression of caspase 3 by beta-amyloid, a possible protein expression of ERK1/2 (extracellular signal-regulated kinase 1 & 2) and caspase 3 in BV-2cell culture stimulated with beta-amyloid were measured.
The activity of caspase 3 was measured as a cleavage at aspartic acid and serine by a stimulation, which is measured using anti-cleavage-caspase 3 antibody (Cell Signaling Technology Inc, Beverly, Mass., USA) through immunoblotting analysis. […]

For experiment [3], the system named is interleukin-1beta. Description: LPS-induced interleukin-1beta in brain and serum of C57BL/6 mice. It is filed as in vivo. The conditions noted are these: oral KHG25967 10 mg/kg or 20 mg/kg every day for 2 weeks, then LPS 10 mg/kg into brain, 6 hours. The protocol:
The animal experiment was performed using C57BL/6 mice ([…], 12-14 weeks old, Harlan Sprague Dawley inc, Indianapolis, Ind., USA) by stereotaxis. The intracerebroventricular (ICV) injection was according to the intracerebroventricular injection system described in Craft et al., 2004b. The mice were grown in an accommodation for SPF (specific pathogen free) under 12 hours light/12 hours dark repeat, and supplied with water and feed as recommended by the accommodation for SPF. The study was reviewed and approved by the Institutional Animal Care and Use Committee (IACUC) of Asan Institute for Life Sciences, Asan Medical Center, which abides by the Institute of Laboratory Animal Resources (ILAR) guide.
The effect of KHG25967 on the change of pro-inflammatory cytokines was examined in vivo using 12-14 week old C57BL/6 mice. The control group was administered with PBS only for 2 weeks and then, further treated with PBS for 6 hours. The LPS group was administered with PBS only for 2 weeks and then, 10 mg/kg of LPS was administered into brain using streotaxis. The KHG25967 treated group was administered with 10 mg/kg or 20 mg/kg of KHG25967 every day for 2 weeks, and then, 10 mg/kg of LPS was administered into brain using streotaxis. […] The changes in the level of pro-inflammatory cytokines (interleukin-1beta and tumor necrosis factor-alpha) in the separated blood and brain were measured.

A further experiment deals with phospho-ERK1. The experiment in a line: Immunoblotting of phospho-ERK1 in beta-amyloid stimulated BV-2 cell culture. It counts as cell-based. The protocol:
as §3, §4

The record followed here is patent publication US9012481B2, “Benzoarylureido compounds, and composition for prevention or treatment of neurodegenerative brain disease containing the same” (Korea Institute of Science and Technology, priority 2009, dated 2015).

In the case of `O=C(O)CNC(=O)Nc1nc2ccccc2s1` [KHG25967, 2-(3-benzo[d]thiazole-2-ylureido)acetic acid], the “suppression of tumor necrosis factor-alpha level (FIG. 3B)” value in experiment [1] came to 61%. Moreover, the “morphological characteristics of damaged cells (FIG. 1A)” value in the experiment with BV-2 cells is reported as “alleviated”. Moreover, in the experiment with interleukin-1beta [2], the “suppression of interleukin-1beta level (FIG. 3A)” value is listed as 70%. Also, the “reduction of expression level of phospho-ERK2 (FIG. 2B)” value with phospho-ERK2 came out at 70%. For the same compound, in the experiment with caspase 3, the “reduction of expression level of cleavage-caspase 3 (FIG. 2C)” value was 93%. For the same compound, the “level of interleukin-1beta in blood (serum, FIG. 4C)” value in the experiment on interleukin-1beta [3] is given as “no specific difference”. The “decrease of interleukin-1beta level in brain (FIG. 4A)” value in the experiment with interleukin-1beta [3] (compared with LPS only as 100%) is given as 55%. The “reduction of expression level of phospho-ERK1 (FIG. 2B)” value in the experiment on phospho-ERK1 (beta-amyloid together with KHG25967 (50 nM) compared to beta-amyloid only) stood at 90%. Moreover, the “increase of phospho-ERK1/2 (Western blot, FIG. 2A)” value with phospho-ERK1 (culture treated with beta-amyloid in the presence of 50 nM KHG25967) is “considerably weakened”.
